Marks after values point to notes of the source that are not given here.
Experiments:
[1] = system: Pyricularia oryzae; assay type: cell-based; conditions: tested at 0.1, 1, 10 and 100 ppm, 20° C., 3 to 5 days, photometric at 620 nm
[2] = system: Lolium; test: Pre-emergence herbicidal effect, greenhouse; assay type: in vivo; conditions: scored after 3 weeks
Source text: (§1) Seeds of mono- and dicotyledonous weed and crop plants are placed in sandy loam soil in wood fibre pots and covered with soil. The test compounds, formulated as wettable powders (WP), are then applied as an aqueous suspension with a water application rate of 600 l/ha (converted) and with addition of 0.2% wetting agent, in different dosages to the surface of the covering soil. After the treatment, the pots are placed in a greenhouse and maintained under optimum growth conditions for the test plants. The visual scoring of the emergence damage on the trial plants is carried out after a trial time of 3 weeks in comparison to untreated controls (herbicidal effect in percent (%): 100% effect=plants have died, 0% effect=like control plants).

[3] = system: Setaria; test: Pre-emergence herbicidal effect, greenhouse; assay type: in vivo; conditions: scored after 3 weeks
Source text: as §1

[4] = system: Echinochloa; test: Post-emergence herbicidal effect, greenhouse; assay type: in vivo; conditions: 320 g a.i./ha, scored after about 3 weeks
Protocol: (§2) Seeds of mono- and dicotyledonous weed and crop plants are placed in sandy loam soil in wood fibre pots, covered with soil and cultivated in a greenhouse under good growth conditions. 2-3 weeks after sowing, the trial plants are treated at the one-leaf stage. The test compounds, formulated as wettable powders (WP), are sprayed at various dosages with a water application rate of 600 l/ha (converted) and with addition of 0.2% wetting agent to the green parts of the plants. After the trial plants have stood in the greenhouse for about 3 weeks under optimum growth conditions, the effect of the products is scored visually in comparison to untreated controls (herbicidal effect in percent (%): 100% effect=plants have died, 0% effect=like control plants).

[5] = system: Lolium; test: Post-emergence herbicidal effect, greenhouse; assay type: in vivo; conditions: 320 g a.i./ha, scored after about 3 weeks
Protocol: as §2

[6] = system: Setaria; test: Post-emergence herbicidal effect, greenhouse; assay type: in vivo; conditions: 320 g a.i./ha, scored after about 3 weeks
Protocol: as §2

[7] = logP by HPLC on a reversed-phase column (C18), EEC Directive 79/831 Annex V.A8; assay type: physicochemical; conditions: reversed-phase C18, 43° C., pH variant not stated for these values
Source text: [table] The determination is made in the acidic range at a pH of 2.3 using 0.1% aqueous phosphoric acid and acetonitrile as eluents; linear gradient from 10% acetonitrile to 95% acetonitrile. The determination with LC-MS in the acidic range is made at a pH of 2.7 with 0.1% aqueous formic acid and acetonitrile (containing 0.1% formic acid) as eluents; linear gradient from 10% acetonitrile to 95% acetonitrile. The determination with LC-MS in the neutral range is made at a pH of 7.8 with 0.001 molar aqueous ammonium hydrogen carbonate solution and acetonitrile as eluents; linear gradient from 10% acetonitrile to 95% acetonitrile. Calibration is carried out with unbranched alkan-2-ones (having 3 to 16 carbon atoms), for which the logP values are known (logP values determined on the basis of the retention times by means of linear interpolation between two successive alkanones).

[8] = system: green peach aphid (Myzus persicae); test: Myzus persicae test (MYZUPE), leaf immersion; assay type: in vivo; conditions: 500 ppm; cabbage leaves immersed
Protocol: [table] A suitable preparation of active compound is prepared by mixing 1 part by weight of active compound with the stated amounts of solvent and emulsifier and diluting the concentrate with emulsifier-containing water to the desired concentration. Leaves of cabbage (Brassica oleracea) heavily infested by the green peach aphid (Myzus persicae) are treated by being immersed in the preparation of active compound at the desired concentration. After the desired time, the kill rate in % is determined. 100% means that all of the aphids have been killed; 0% means that no aphids have been killed.

[9] = system: Echinochloa; test: Pre-emergence herbicidal effect, greenhouse; assay type: in vivo; conditions: 1000 g a.i./ha, scored after 3 weeks
Source text: as §1

[10] = system: Digitaria; test: Post-emergence herbicidal effect, greenhouse; assay type: in vivo; conditions: 320 g a.i./ha, scored after about 3 weeks
Protocol: as §2

[11] = system: Sorghum; test: Post-emergence herbicidal effect, greenhouse; assay type: in vivo; conditions: 320 g a.i./ha, scored after about 3 weeks
Protocol: as §2

[12] = system: Sugarbeets; test: Post-emergence herbicidal effect, greenhouse; assay type: in vivo; conditions: 320 g a.i./ha, scored after about 3 weeks
Protocol: as §2

[13] = system: Plasmopara viticola; test: Plasmopara test (grapevine)/protective; assay type: in vivo; conditions: protective, 100 g/ha, 6 days after inoculation
Protocol: (§3) [table] A suitable preparation of active compound is prepared by mixing 1 part by weight of active compound with the stated amounts of solvent and emulsifier and diluting the concentrate with water to the desired concentration. To test for protective activity, young plants are sprayed with the preparation of active compound at the stated application rate. After the spray coating has dried on, the plants are inoculated with an aqueous spore suspension of Plasmopara viticola and then spend 1 day in an incubation cabin at about 20° C. and 100% relative humidity. Thereafter the plants are placed in a greenhouse for 4 days at about 21° C. and about 90% humidity. The plants are then moistened and placed in an incubation cabin for 1 day.

[14] = system: Venturia inaequalis; test: Venturia test (apple)/protective; assay type: in vivo; conditions: protective, 100 g/ha, 10 days after inoculation
Protocol: as §3, with “conidia” for “spore”, “the causative organism of apple scab, Venturia inaequalis,” for “Plasmopara viticola”, “greenhouse” for “greenhouse for 4 days”, “90% relative” for “90%”, “humidity.” for “humidity. The plants are then moistened and placed in an incubation cabin for 1 day.”

[15] = system: Botrytis cinerea; test: Botrytis test (bean)/protective; assay type: in vivo; conditions: protective, 500 g/ha, two days after inoculation
Protocol: A suitable preparation of active compound is prepared by mixing 1 part by weight of active compound with the stated amounts of solvent and emulsifier and diluting the concentrate with water to the desired concentration.
To test for protective activity, young plants are sprayed with the preparation of active compound at the stated application rate. After the spray coating has dried on, two small pieces of agar colonized by Botrytis cinerea are placed on each leaf. The inoculated plants are placed in a darkened chamber at about 20° C. and 100% humidity.
Two days after inoculation, the size of the infestation spots on the leaves is evaluated. 0% denotes an efficacy corresponding to that of the control, while an efficacy of 100% denotes a total absence of observed infestation.

[16] = system: Sinapis; test: Post-emergence herbicidal effect, greenhouse; assay type: in vivo; conditions: 320 g a.i./ha, scored after about 3 weeks
Protocol: as §2

Cc1ccc(C2(Cl)C(=O)N(C)OC(C)(C)C2=O)c(Cl)c1 (stereo not shown) [Example I-1-1]
ED50 (dose leading to 50% inhibition of fungal growth) [1]: <0.1 ppm

CCc1cc(Cl)cc(Cl)c1C1(Cl)C(=O)N(C)OC(C)(C)C1=O (stereo not shown) [Example I-1-7]
herbicidal effect in percent, Lolium ([2]; 320 g a.i./ha): 100% | herbicidal effect in percent, Setaria ([3]; 320 g a.i./ha): 100% | herbicidal effect in percent, Echinochloa [4]: 90% | herbicidal effect in percent, Lolium [5]: 90% | herbicidal effect in percent, Setaria [6]: 90%

CCc1cc(Br)ccc1C1(Cl)C(=O)N(C)OC(C)(C)C1=O (stereo not shown) [Example I-1-10]
herbicidal effect in percent, Echinochloa [4]: 90% | herbicidal effect in percent, Lolium [5]: 90% | herbicidal effect in percent, Setaria [6]: 80%

CN1OC(C)(C)C(=O)C(Cl)(c2cc(-c3ccc(Cl)cc3)ccc2Cl)C1=O (stereo not shown) [Example I-1-11]
log P [7]: log P 4.58*

Cc1ccc(-c2ccc(C(F)(F)F)cc2)cc1C1(Cl)C(=O)N(C)OC(C)(C)C1=O (stereo not shown) [Example I-1-12]
log P [7]: log P 4.56*

CC1(C)OC(=O)C(Cl)(c2cc(-c3ccc(Cl)cc3)ccc2Cl)C(=O)C1(C)C (stereo not shown) [Example I-2-1]
activity (kill rate in %) [8]: ≥ 80% | ED50 (dose leading to 50% inhibition of fungal growth) [1]: 0.48 ppm

Cc1ccc(-c2ccc(Cl)cc2)cc1C1(Cl)C(=O)OC2CCCCC2(C)C1=O (stereo not shown) [Example I-2-2]
herbicidal effect in percent, Echinochloa [9]: 100% | herbicidal effect in percent, Lolium ([2]; 1000 g a.i./ha): 80% | herbicidal effect in percent, Setaria ([3]; 1000 g a.i./ha): 100% | herbicidal effect in percent, Digitaria [10]: 100% | herbicidal effect in percent, Echinochloa [4]: 100% | herbicidal effect in percent, Lolium [5]: 80% | herbicidal effect in percent, Setaria [6]: 100% | herbicidal effect in percent, Sorghum [11]: 80% | herbicidal effect in percent, Sugarbeets [12]: 0% | ED50 (dose leading to 50% inhibition of fungal growth) [1]: 0.12 ppm | Efficacy in % [13]: 100% | Efficacy in % [14]: 99% | Efficacy in % [15]: 93%

CC1(C)OC(=O)C(Cl)(c2cc(-c3ccc(Cl)cc3Cl)ccc2Cl)C(=O)C1(C)C (stereo not shown) [Example I-2-6]
herbicidal effect in percent, Echinochloa [4]: 90% | herbicidal effect in percent, Lolium [5]: 70% | herbicidal effect in percent, Setaria [6]: 90% | herbicidal effect in percent, Sinapis [16]: 40%

Cc1ccc(-c2ccc(Cl)cc2)cc1C1(Cl)C(=O)OC(C)(C)C(C)(C)C1=O (stereo not shown) [Example I-2-10]
herbicidal effect in percent, Echinochloa [4]: 70% | herbicidal effect in percent, Lolium [5]: 70% | herbicidal effect in percent, Setaria [6]: 90% | herbicidal effect in percent, Sinapis [16]: 80%
